Consider two molecules from PMC5785531, “Pharmacokinetic parameters explain the therapeutic activity of antimicrobial agents in a silkworm infection model” (Scientific Reports, 2018).

Values after ≈ are worked out from the molar mass of the structure shown. Like-named read-outs stand apart in the source and are kept apart here.

For one test, the system named is S. aureus MRSA4. The test is described as follows: MIC against S. aureus MRSA4 in vitro (broth dilution). Format: cell-based. The note with it: Staphylococcus aureus. An excerpt:
We synthesized 50 compounds (Fig. 2, Supplementary Table 1) using the Steglich esterification scheme[31] in the presence of a […], 1-ethyl-3-(3-dimethylaminopropyl)-carbodiimide hydrochloride (Fig. 1b). Antimicrobial activities of the compounds were examined by determining the MIC against S. aureus MRSA4 in vitro; therapeutic activities were examined using a systemic infection model of silkworms infected with S. aureus MSSA1. […]
(§1) Antimicrobial activity was assessed by determining the MIC by broth dilution assay according to our previous reports[21],[35],[36] as per the Clinical and Laboratory Standards Institute[37]. Briefly, serial dilutions of compound 5, compound 7, and positive controls were prepared in cation-adjusted Mueller-Hinton Broth (MHB, Difco, Franklin Lakes, NJ, USA), 100 µl of which was dispensed into each well of a round-bottomed 96-well plate. The final concentrations in the well ranged from 128 µg/ml to 0.0625 µg/ml. Bacteria were grown at 37 °C overnight on either Luria Bertani (tryptone 10 g/l, yeast extract 5 g/l, NaCl 10 g/l) or Tryptic Soy Broth (TSB, Difco) agar plates or sheep blood agar plates (Eiken Chemical Co. Ltd., Tokyo, Japan). Bacterial inoculum was prepared by direct suspension of the colonies in 0.9% saline, and adjusted to obtain a turbidity equivalent to a 0.5 McFarland standard using a spectrophotometer UV-1280 (Shimadzu Corp., Kyoto, Japan). The suspension was then diluted 1:20 in cation-adjusted MHB (Difco), and 10 µl of it was inoculated into each well of previously prepared 96-well plates containing compounds to obtain approximately 5 × 10^4 colony forming units/well and incubated at 37 °C for 20 h. […] Vancomycin (Wako Pure Chemicals) or norfloxacin (Sigma Aldrich, St Louis, MO, USA) were used as positive controls. Each plate contained a growth control well and a vehicle control well. The MIC was determined as the minimum concentration that inhibited the growth of the bacteria.
On the technique in general: Broth dilution looks for growth in wells or tubes with falling amounts of substance.

The next test concerns S. aureus MSSA1. The test is described as follows: Silkworm systemic infection model, therapeutic activity (ED50). It is filed as in vivo, Staphylococcus aureus. The source says: We synthesized 50 compounds (Fig. 2, Supplementary Table 1) using the Steglich esterification scheme[31] in the presence of a […], 1-ethyl-3-(3-dimethylaminopropyl)-carbodiimide hydrochloride (Fig. 1b). Antimicrobial activities of the compounds were examined by determining the MIC against S. aureus MRSA4 in vitro; therapeutic activities were examined using a systemic infection model of silkworms infected with S. aureus MSSA1.
A total of 108,373 compounds from the chemical library of the Drug Discovery Initiative at the University of Tokyo were screened for antibacterial activity against S. aureus strain MRSA4 as previously reported. Those compounds that inhibited the growth of MRSA4 at 100 µM were further evaluated for their therapeutic effects in silkworms infected with S. aureus strain MSSA1 according to previously reported studies[17],[21].

The test system of another test is Bacillus cereus JCM20037. The test is described as follows: MIC by broth microdilution assay. It is filed as cell-based. The note with it: median of three experiments. As for the experimental part:
as §1

For test [1], the system named is Bacillus subtilis JCM2499. The test is described as follows: MIC by broth microdilution assay. Format: cell-based. Particulars: median of three experiments. How it is done:
as §1

The subject of test [2] is Enterococcus faecalis EF1. As to the kind of experiment: MIC by broth microdilution assay. The note with it: median of three experiments. Format: cell-based. How it is done: as §1
For a further test, the system named is Escherichia coli W3110. The test is described as follows: MIC by broth microdilution assay. Format: cell-based. Particulars: median of three experiments. As for the experimental part: as §1
Test [3] has as its system Listeria monocytogenes 10403S. As to the kind of experiment: MIC by broth microdilution assay. Format: cell-based. Particulars: median of three experiments. How it is done:
as §1

A further test concerns MSSA1 (clinical isolate). The test is described as follows: MIC by broth microdilution assay. It is filed as cell-based. Particulars: Staphylococcus aureus, MSSA, median of three experiments. As for the experimental part:
as §1

A further test deals with NCTC8325. As to the kind of experiment: MIC by broth microdilution assay. The note with it: Staphylococcus aureus, MSSA / NCTC 8325, median of three experiments. It is filed as cell-based. As for the experimental part:
as §1

The next test concerns Newman. As to the kind of experiment: MIC by broth microdilution assay. It is filed as cell-based. Particulars: Staphylococcus aureus, MSSA, median of three experiments. As for the experimental part:
as §1

Test [4] deals with Pseudomonas aeruginosa PAO1. The test is described as follows: MIC by broth microdilution assay. It is filed as cell-based. Particulars: median of three experiments. How it is done: as §1
The next test relates to Smith ATCC13709. The test is described as follows: MIC by broth microdilution assay. It is filed as cell-based. Particulars: Staphylococcus aureus, ATCC 13709 / MSSA, median of three experiments. How it is done: as §1
Test [5] concerns Staphylococcus haemolyticus JCM2416. The test is described as follows: MIC by broth microdilution assay. Format: cell-based. Particulars: median of three experiments. As for the experimental part:
as §1

The subject of test [6] is Staphylococcus pseudintermedius JCM17571. As to the kind of experiment: MIC by broth microdilution assay. Format: cell-based. Particulars: median of three experiments. As for the experimental part:
as §1

For the next test, the system named is Staphylococcus simulans. The test is described as follows: MIC by broth microdilution assay. Format: cell-based. The note with it: median of three experiments. How it is done: as §1
Test [7] has as its system Streptococcus sanguinis JCM5708. As to the kind of experiment: MIC by broth microdilution assay. Format: cell-based. The note with it: MHB with 2.5% lysed horse blood, 24 h, median of three experiments. How it is done:
as §1

The test system of test [8] is USA300 FPR3757 (clinical isolate). The test is described as follows: MIC by broth microdilution assay. It is filed as cell-based. The note with it: Staphylococcus aureus, MRSA, median of three experiments. As for the experimental part: as §1
Test [9] relates to Vancomycin- resistant E. faecalis EF5. The test is described as follows: MIC by broth microdilution assay. Format: cell-based. Particulars: Enterococcus faecalis, median of three experiments. As for the experimental part:
as §1

For test [10], the system named is Streptococcus agalactiae JCM5671. As to the kind of experiment: MIC by broth microdilution assay. It is filed as cell-based. The note with it: MHB with 2.5% lysed horse blood, 24 h, median of three experiments. How it is done:
as §1, with “obtain approximately 5 × 10^4 colony forming units/well and incubated at 37 °C for 20 h.” left out

Test [11] has as its system Streptococcus pneumoniae (clinical isolate). The test is described as follows: MIC by broth microdilution assay. It is filed as cell-based. The note with it: MHB with 2.5% lysed horse blood, 24 h, median of three experiments. How it is done:
as §1, with “obtain approximately 5 × 10^4 colony forming units/well and incubated at 37 °C for 20 h.” left out

Setting [12] is: MRSA, MRSA4 (clinical isolate), median of three experiments (Table 1).
The mark [13] stands for this setting: S. aureus MRSA4 in vitro, SAR series (Fig. 2).
The mark [14] stands for this setting: Staphylococcus aureus, silkworms infected with S. aureus MSSA1 (Fig. 2), read-out: ED50.

In general, MIC refers to the smallest concentration in the dilution series that meets the test's criterion for growth inhibition.

Take `O=C(OCc1cc(Cl)cc(Cl)c1)c1ccc([N+](=O)[O-])s1` [compound 5]: the MIC with S. aureus MRSA4 (setting [12]) is 0.5 µg/mL (≈ 1.51 µM); with S. aureus MRSA4 (setting [13]), 0.5 µg/mL (≈ 1.51 µM); against Bacillus cereus JCM20037 it was 1 µg/mL (≈ 3.01 µM); in test [1] it was 1 µg/mL (≈ 3.01 µM); in test [2] it was above 128 µg/mL; with Escherichia coli W3110, above 128 µg/mL. In addition, the MIC in [3] is above 128 µg/mL; in the test with MSSA1 (clinical isolate), 0.5 µg/mL (≈ 1.51 µM); against NCTC8325 it was 0.5 µg/mL (≈ 1.51 µM); in the test on Newman, 0.5 µg/mL (≈ 1.51 µM); in test [4], above 128 µg/mL; against Smith ATCC13709 it was 0.5 µg/mL (≈ 1.51 µM). Besides, the MIC is 0.25 µg/mL (≈ 0.753 µM) in test [5]; 0.125 µg/mL (≈ 0.376 µM) in test [6]; 0.25 µg/mL (≈ 0.753 µM) against Staphylococcus simulans; above 128 µg/mL in [7]; 1 µg/mL (≈ 3.01 µM) in test [8]; above 128 µg/mL in [9]. The results for the MIC in [10] and in [11] were above 128 µg/mL and 1 µg/mL (≈ 3.01 µM), respectively. Besides, the ED50 in the test with S. aureus MSSA1 (S. aureus-infected silkworms) was 22 µg/g; in the test with S. aureus MSSA1 (setting [14]) it was 22 mg/kg.

As to `O=C(OCc1ccccc1)c1ccc([N+](=O)[O-])s1` [compound 7], the MIC with S. aureus MRSA4 (setting [12]) is 1 µg/mL (≈ 3.8 µM); in the test with S. aureus MRSA4 (setting [13]), 1 µg/mL (≈ 3.8 µM); in the test with Bacillus cereus JCM20037, 1 µg/mL (≈ 3.8 µM); in [1], 1 µg/mL (≈ 3.8 µM); in [2] it was above 128 µg/mL; against Escherichia coli W3110 it was above 128 µg/mL. The MIC in test [3] was above 128 µg/mL; with MSSA1 (clinical isolate), 1 µg/mL (≈ 3.8 µM); in the test with NCTC8325, 1 µg/mL (≈ 3.8 µM); in the test on Newman, 1 µg/mL (≈ 3.8 µM); in test [4], above 128 µg/mL; with Smith ATCC13709, 0.5 µg/mL (≈ 1.9 µM). For the same molecule, the MIC in [5] was 0.25 µg/mL (≈ 0.95 µM); in test [6] it was 0.5 µg/mL (≈ 1.9 µM); in the test on Staphylococcus simulans, 0.5 µg/mL (≈ 1.9 µM); in [7] it was above 128 µg/mL; in test [8] it was 1 µg/mL (≈ 3.8 µM); in test [9], above 128 µg/mL. For the same molecule, the MIC was above 128 µg/mL in [10] and 1 µg/mL (≈ 3.8 µM) in [11]. Moreover, the ED50 in the test on S. aureus MSSA1 (S. aureus-infected silkworms) is above 170 µg/g; in the test with S. aureus MSSA1 (setting [14]), above 170 mg/kg.
